Values of other authors in patent US20250387361A1, “METHODS OF ADMINISTERING GAMMA-HYDROXYBUTYRATE COMPOSITIONS WITH DIVALPROEX SODIUM” (Flamel Ireland Limited, priority 2020, published 2025).
Like-named read-outs stand apart in the source and are kept apart here.

How the values were obtained:
CYP2E1 = CYP2E1 (Homo sapiens, UniProt P05181); conditions: up to 3 mM (378 mcg/mL); cited from earlier work
rats [1] = conditions: cited from earlier work
bacterial gene mutation = conditions: in vitro; cited from earlier work
CYP2D6 = CYP2D6 (Homo sapiens, UniProt P10635); conditions: up to 3 mM (378 mcg/mL); cited from earlier work
Chain of CYP2D6 (P10635 whole entry): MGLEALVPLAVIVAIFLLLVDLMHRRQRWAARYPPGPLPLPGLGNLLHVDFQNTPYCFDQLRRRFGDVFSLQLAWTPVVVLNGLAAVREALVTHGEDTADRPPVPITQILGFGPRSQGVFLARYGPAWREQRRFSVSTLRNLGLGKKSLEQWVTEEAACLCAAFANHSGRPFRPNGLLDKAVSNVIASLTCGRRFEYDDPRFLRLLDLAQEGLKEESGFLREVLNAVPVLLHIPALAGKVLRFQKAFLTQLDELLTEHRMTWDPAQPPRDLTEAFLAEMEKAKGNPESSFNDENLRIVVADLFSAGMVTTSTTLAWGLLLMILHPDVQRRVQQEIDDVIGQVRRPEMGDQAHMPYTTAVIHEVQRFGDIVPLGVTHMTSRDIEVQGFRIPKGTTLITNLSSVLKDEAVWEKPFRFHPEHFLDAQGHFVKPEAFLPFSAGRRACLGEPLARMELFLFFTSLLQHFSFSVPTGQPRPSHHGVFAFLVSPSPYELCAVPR

rat = conditions: in vivo; cited from earlier work
pregnant rabbits = conditions: cited from earlier work
rats [2] = conditions: cited from earlier work; remark: listed apart in the source
[3] = 18 female and 18 male healthy adults; 4.5 g oral dose; cited from earlier work
rats [4] = conditions: cited from earlier work; remark: listed apart in the source
male and female rats = conditions: cited from earlier work
[5] = cited from earlier work; for apparent oral clearance: 25 mg/kg oral
mammalian cells = conditions: in vitro; cited from earlier work
CYP2C19 = CYP2C19 (Homo sapiens, UniProt P33261); conditions: up to 3 mM (378 mcg/mL); cited from earlier work
Chain of CYP2C19 (P33261 whole entry): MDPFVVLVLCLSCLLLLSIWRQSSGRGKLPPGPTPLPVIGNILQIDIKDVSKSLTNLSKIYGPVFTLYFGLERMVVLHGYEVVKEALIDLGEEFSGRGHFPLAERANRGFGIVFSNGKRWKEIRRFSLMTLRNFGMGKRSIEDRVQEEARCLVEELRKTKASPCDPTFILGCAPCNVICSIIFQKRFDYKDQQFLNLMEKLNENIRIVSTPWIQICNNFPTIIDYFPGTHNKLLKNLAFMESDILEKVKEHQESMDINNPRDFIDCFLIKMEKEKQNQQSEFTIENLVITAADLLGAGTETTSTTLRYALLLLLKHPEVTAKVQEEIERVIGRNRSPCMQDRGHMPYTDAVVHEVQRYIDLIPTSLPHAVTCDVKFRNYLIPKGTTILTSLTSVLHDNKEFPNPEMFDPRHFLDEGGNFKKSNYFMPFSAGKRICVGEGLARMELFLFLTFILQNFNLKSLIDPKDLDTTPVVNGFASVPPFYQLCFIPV

CYP3A = conditions: up to 3 mM (378 mcg/mL); cited from earlier work
CYP2C9 = CYP2C9 (Homo sapiens, UniProt P11712); conditions: up to 3 mM (378 mcg/mL); cited from earlier work
Chain of CYP2C9 (P11712 whole entry): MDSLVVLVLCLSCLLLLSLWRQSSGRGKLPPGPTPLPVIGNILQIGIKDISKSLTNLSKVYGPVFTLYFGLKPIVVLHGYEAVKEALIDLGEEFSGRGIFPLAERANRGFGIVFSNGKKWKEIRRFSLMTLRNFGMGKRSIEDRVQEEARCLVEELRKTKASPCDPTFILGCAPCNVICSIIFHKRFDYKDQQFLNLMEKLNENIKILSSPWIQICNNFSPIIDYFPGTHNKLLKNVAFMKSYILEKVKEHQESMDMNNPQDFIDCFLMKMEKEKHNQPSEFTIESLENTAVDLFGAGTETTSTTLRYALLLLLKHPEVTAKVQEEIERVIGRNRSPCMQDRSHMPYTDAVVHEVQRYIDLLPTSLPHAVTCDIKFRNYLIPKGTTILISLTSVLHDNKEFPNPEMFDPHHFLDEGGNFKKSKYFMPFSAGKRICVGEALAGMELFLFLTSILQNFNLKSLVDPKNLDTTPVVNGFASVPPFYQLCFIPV

pregnant rats = conditions: cited from earlier work
CYP1A2 = molecular target: T1, CYP1A2 (Homo sapiens, UniProt P05177); conditions: up to 3 mM (378 mcg/mL); cited from earlier work
T1 sequence (P05177 1-516): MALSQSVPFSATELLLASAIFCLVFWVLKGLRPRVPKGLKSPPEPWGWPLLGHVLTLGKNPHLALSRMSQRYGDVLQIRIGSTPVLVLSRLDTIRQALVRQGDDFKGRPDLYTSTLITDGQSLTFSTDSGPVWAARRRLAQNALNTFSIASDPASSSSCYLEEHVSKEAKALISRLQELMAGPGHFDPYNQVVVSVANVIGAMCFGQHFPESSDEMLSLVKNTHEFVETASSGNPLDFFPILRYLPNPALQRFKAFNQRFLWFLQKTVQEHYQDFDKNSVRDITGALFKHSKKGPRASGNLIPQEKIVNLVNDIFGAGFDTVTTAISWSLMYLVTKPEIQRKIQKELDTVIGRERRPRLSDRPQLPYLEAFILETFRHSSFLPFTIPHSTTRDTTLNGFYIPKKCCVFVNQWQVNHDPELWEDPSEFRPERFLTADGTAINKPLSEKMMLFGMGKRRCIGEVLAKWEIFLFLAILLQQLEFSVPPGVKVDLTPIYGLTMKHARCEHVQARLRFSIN

Chain of CYP2E1 (P05181 whole entry): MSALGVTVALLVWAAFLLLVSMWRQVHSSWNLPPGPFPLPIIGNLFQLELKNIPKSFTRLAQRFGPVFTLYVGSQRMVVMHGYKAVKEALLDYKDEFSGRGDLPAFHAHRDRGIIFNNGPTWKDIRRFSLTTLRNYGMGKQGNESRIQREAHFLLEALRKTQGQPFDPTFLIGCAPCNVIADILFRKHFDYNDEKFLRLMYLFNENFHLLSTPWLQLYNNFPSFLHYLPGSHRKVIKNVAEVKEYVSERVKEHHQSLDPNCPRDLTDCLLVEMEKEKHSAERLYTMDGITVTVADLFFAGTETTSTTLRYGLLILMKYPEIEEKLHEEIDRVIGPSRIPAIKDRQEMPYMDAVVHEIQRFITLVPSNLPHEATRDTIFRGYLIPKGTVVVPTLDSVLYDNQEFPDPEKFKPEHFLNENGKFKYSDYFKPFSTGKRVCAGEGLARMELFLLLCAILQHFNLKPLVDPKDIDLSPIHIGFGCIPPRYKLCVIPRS

SMILES: O=C([O-])CCCO.[Na+] [sodium oxybate, sodium 4-hydroxybutyrate]
- inhibition of CYP2E1 activity (CYP2E1): does not significantly inhibit
- pre- and postnatal findings (rats [1]; oral 150, 350, or 1,000 mg/kg/day, at the highest dose tested): increased stillbirths and decreased offspring postnatal viability and body weight gain
- no-effect dose for pre- and postnatal developmental toxicity relative to MRHD (mg/m^2 basis) (rats [1]; rat, in vivo): less than the MRHD
- bacterial gene mutation (bacterial gene mutation): negative
- inhibition of CYP2D6 activity (CYP2D6): does not significantly inhibit
- micronucleus (rat): negative
- highest dose tested relative to MRHD of 9 g per night (mg/m^2 basis) (pregnant rabbits; 1,200 mg/kg/day): ~3 times
- developmental toxicity (pregnant rabbits; oral 300, 600, or 1,200 mg/kg/day throughout organogenesis): no clear evidence of developmental toxicity
- plasma exposure (AUC) at the highest dose tested relative to humans at MRHD of 9 g per night (rats [2]; 1,000 mg/kg/day): 2 times
- tumors (rats [2]; oral doses up to 1,000 mg/kg/day for 83 (males) or 104 (females) weeks): no increase in tumors
- gender differences in pharmacokinetics of GHB [3]: no gender differences were detected
- growth and maturation findings (rats [4]; at the highest dose tested (900 mg/kg/day)): Reduced body weight gain in males and females and delayed sexual maturation in males
- mortality (rats [4]; oral 0, 100, 300, or 900 mg/kg/day, postnatal days 21 through 90): mortality was observed at the two highest doses tested
- highest dose tested relative to MRHD on a mg/m^2 basis (male and female rats; 1,000 mg/kg/day): approximately equal to the MRHD
- effects on fertility (male and female rats; oral 150, 350, or 1,000 mg/kg/day prior to and throughout mating, females through early gestation): no adverse effects on fertility
- apparent oral clearance ([5]; Child's Class A cirrhotic patients): 4.5 mL/min/kg
- apparent oral clearance ([5]; Child's Class C cirrhotic patients): 4.1 mL/min/kg
- mean t1/2 ([5]; Class C patients): 59 min
- apparent oral clearance ([5]; healthy adults): 9.1 mL/min/kg
- AUC values in cirrhotic patients vs normal hepatic function ([5]; single oral dose of 25 mg/kg): doubled
- chromosomal aberration (mammalian cells): negative
- inhibition of CYP2C19 activity (CYP2C19): does not significantly inhibit
- inhibition of CYP3A activity (CYP3A): does not significantly inhibit
- inhibition of CYP2C9 activity (CYP2C9): does not significantly inhibit
- highest dose tested relative to MRHD of 9 g per night (mg/m^2 basis) (pregnant rats; 1,000 mg/kg/day): approximately 1 times
- developmental toxicity (pregnant rats; oral 150, 350, or 1,000 mg/kg/day throughout organogenesis): no clear evidence of developmental toxicity
- inhibition of CYP1A2 activity (CYP1A2): does not significantly inhibit
